Laboratory results published in patent US6710045B2, “Heterocyclic fluoroalkenyl thioethers and the use thereof as pesticides (IV)” (priority 2003, dated 2004).

How the values were obtained:
[1] = logP determination by HPLC (EEC Directive 79/831 Annex V.A8); type: physicochemical; conditions: for chromatographic logP: pH 2.3, HPLC gradient method, acetonitrile/0.1% aqueous phosphoric acid
Procedure: The logP values were determined in accordance with EEC Directive 79/831 Annex V.A8 by HPLC (gradient method, acetonitrile/0.1% aqueous phosphoric acid).

[2] = test system: Meloidogyne incognita egg/larvae; assay: Meloidogyne test (gall formation on lettuce roots); type: in vivo; conditions: active compound concentration 20 ppm; after 14 days
Procedure: Containers are filled with sand, solution of active compound, Meloidogyne incognita egg/larvae suspension and lettuce seeds. The lettuce seeds germinate and the plants develop. On the roots, galls are formed.
After the desired period of time, the nematicidal action is determined in % using gall formation as a measure. 100% means that no galls were found; 0% means that the number of galls on the treated plants corresponds to that of the untreated control.

[3] = test system: larvae of the mustard beetle (Phaedon cochleariae); assay: Phaedon larvae test (dipped cabbage leaves); conditions: active compound concentration 0.1%; after 7 days

| chromatographic logP [1] | logP (pH 2) [1] | SMILES | nematicidal action (activity) using gall formation as a measure [2] [%] | kill [3] [%] |
| --- | --- | --- | --- | --- |
| 4.83 | – | FC(F)=C(F)CCCCSc1nc2ccccc2s1 [Example 1, 2-(6,6,5-trifluorohex-5-enylthio)-benzothiazole] | 100 | 100 |
| 3.36 | – | O=S(=O)(CCCCC(F)=C(F)F)c1nc2ccccc2s1 [Example 3, 2-(6,6,5-trifluorohex-5-enylsulphonyl)-benzothiazole] | 90 | – |
| – | 4.37 | FC(F)=C(F)CCCCSc1ccc(-c2ccccc2Cl)nn1 [Example 16] | – | – |
| – | 5.62 | FC(F)=C(F)CCCCSc1nc2cc(SC(F)(F)F)ccc2o1 [Example 17] | – | – |
